Our source for the T/C values is PubChem BioAssay AID330 (DTP/NCI, 2004).

The experiment concerns P388 leukemia ip, CD2F1 mice, survival T/C. Description: NCI In Vivo Anticancer Drug Screen. Data for tumor model P388 Leukemia (intraperitoneal) in CD2F1 (CDF1) mice. The settings on record: endpoint: median survival time, higher = longer survival. The procedure, abridged:
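Mice carrying the transplanted tumor received test compound or vehicle. Survival was recorded in each group, and the value is the treated-group measurement divided by that of the vehicle-treated control group.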

Setting [1] is: dose: 6.25 mg/kg/injection, schedule: Q01DX009 (ip), vehicle: saline with Tween-80.
The mark [2] stands for this setting: dose: 12.5 mg/kg/injection, schedule: Q01DX009 (ip), vehicle: saline with Tween-80.
[3] abbreviates: dose: 25.0 mg/kg/injection, schedule: Q01DX009 (ip), vehicle: saline with Tween-80.
Where [4] appears, read: dose: 60.0 mg/kg/injection, schedule: Q01DX005 (ip), vehicle: saline with Tween-80.
Setting [5] is: dose: 120.0 mg/kg/injection, schedule: Q01DX005 (ip), vehicle: saline with Tween-80.
[6] abbreviates: dose: 240.0 mg/kg/injection, schedule: Q01DX005 (ip), vehicle: saline with Tween-80.
[7] abbreviates: dose: 50.0 mg/kg/injection, schedule: Q01DX005 (ip), vehicle: saline with Tween-80.
Where [8] appears, read: dose: 100.0 mg/kg/injection, schedule: Q01DX001 (ip), vehicle: Klucel (hydroxypropylcellulose) (HPC).
[9] abbreviates: dose: 200.0 mg/kg/injection, schedule: Q01DX001 (ip), vehicle: Klucel (hydroxypropylcellulose) (HPC).
Setting [10] is: dose: 400.0 mg/kg/injection, schedule: Q01DX001 (ip), vehicle: Klucel (hydroxypropylcellulose) (HPC).

SMILES strings stand for the structures. “And” between values parts separate entries of the source, which are not always exact repeats. Identical values can stand only once. Inconclusive results and toxic doses are left out.

On to `O=C1c2ccccc2C(=O)N1Cc1ccccc1[N+](=O)[O-]`, for which the T/C under setting [1] is 95 % of control; the T/C under setting [2] was 88 % of control; the T/C under setting [3] is 89 % of control; the T/C (dose: 100.0 mg/kg/injection, schedule: Q01DX009 (ip), vehicle: saline) is 98 % of control; the T/C (dose: 200.0 mg/kg/injection, schedule: Q01DX009 (ip), vehicle: saline) was 102 % of control.
`CCC1=C[C@H]2CN(CCc3c([nH]c4ccccc34)[C@@](C(=O)OC)(c3cc4c(cc3OC)N(C)[C@H]3C(C(=O)NC)=C[C@]5(CC)C=CCN6CC[C@]43[C@@H]65)C2)C1`: the T/C is, setting by setting: (dose: 1.0 mg/kg/injection, schedule: Q01DX001 (ip), vehicle: other) 101 % of control; (dose: 2.0 mg/kg/injection, schedule: Q01DX001 (ip), vehicle: other) 101 % of control; (dose: 4.0 mg/kg/injection, schedule: Q01DX001 (ip), vehicle: other) 107 % of control; (dose: 8.0 mg/kg/injection, schedule: Q01DX001 (ip), vehicle: other) 108 % of control; (dose: 16.0 mg/kg/injection, schedule: Q01DX001 (ip), vehicle: other) 114 % of control; (dose: 32.0 mg/kg/injection, schedule: Q01DX001 (ip), vehicle: other) 112 % of control and 123 % of control. The T/C (dose: 64.0 mg/kg/injection, schedule: Q01DX001 (ip), vehicle: other) is 119 % of control.
Regarding `Cn1c(N)nc2c(nc(OCc3ccccc3)n2C2OC(CO)C(O)C2O)c1=O` (stereo not drawn), the T/C was 100 % of control under setting [4], 94 % of control under setting [5] and 103 % of control under setting [6].
As for `NCC(=O)c1ccc2oc3ccccc3c2c1`, the T/C runs as follows: (dose: 100.0 mg/kg/injection, schedule: Q01DX009 (ip), vehicle: Klucel (hydroxypropylcellulose) (HPC)) 112 % of control; (dose: 200.0 mg/kg/injection, schedule: Q01DX009 (ip), vehicle: Klucel (hydroxypropylcellulose) (HPC)) 118 % of control.
With `CS(=O)(=O)N/N=C/C(=O)O`, the T/C is 118 % of control (dose: 12.5 mg/kg/injection, schedule: Q01DX009 (ip), vehicle: water); 160 % of control (dose: 50.0 mg/kg/injection, schedule: Q01DX009 (ip), vehicle: water); 157 % of control and 159 % of control (dose: 100.0 mg/kg/injection, schedule: Q01DX009 (ip), vehicle: water).
For `O=C(OCCN1C(=O)C2C3C=CC(C3)C2C1=O)C1C2C=CC(C2)C1C(=O)OCCN1C(=O)C2C3C=CC(C3)C2C1=O` (stereo not drawn), the T/C is, setting by setting: (dose: 50.0 mg/kg/injection, schedule: Q01DX005 (ip), vehicle: saline + Tween-80 + alcohol) 100 % of control; (dose: 100.0 mg/kg/injection, schedule: Q01DX005 (ip), vehicle: saline + Tween-80 + alcohol) 105 % of control; (dose: 200.0 mg/kg/injection, schedule: Q01DX005 (ip), vehicle: saline + Tween-80 + alcohol) 105 % of control.
With `CCCCCCCCCC1=C(C#N)C(=O)OCCN1C`, the T/C reads like this: under setting [4], 92 % of control; under setting [5], 93 % of control.
As to `N#Cc1c(N)nsc1N1CCOCC1`, the T/C was 98 % of control (dose: 12.5 mg/kg/injection, schedule: Q01DX005 (ip), vehicle: saline with Tween-80); 104 % of control (dose: 25.0 mg/kg/injection, schedule: Q01DX005 (ip), vehicle: saline with Tween-80); 98 % of control under setting [7].
On to `CCc1cc(C)cc(NC(=O)OC2CCCCC2C)c1` (stereo not drawn), for which the T/C by setting is: under setting [4], 102 % of control; under setting [5], 112 % of control; under setting [6], 111 % of control.
Turning to `NC(=O)N=Nc1ccc(Cl)c(Cl)c1`, the T/C under setting [7] was 100 % of control; the T/C (dose: 100.0 mg/kg/injection, schedule: Q01DX005 (ip), vehicle: saline with Tween-80) is 102 % of control; the T/C (dose: 200.0 mg/kg/injection, schedule: Q01DX005 (ip), vehicle: saline with Tween-80) was 102 % of control.
As for `CCOC(=O)C(OCC)C1=Cc2ccccc2CC1` (stereo not drawn), the T/C runs as follows: (dose: 25.0 mg/kg/injection, schedule: Q01DX001 (ip), vehicle: Klucel (hydroxypropylcellulose) (HPC)) 93 % of control; (dose: 50.0 mg/kg/injection, schedule: Q01DX001 (ip), vehicle: Klucel (hydroxypropylcellulose) (HPC)) 100 % of control; under setting [8], 93 % of control; under setting [9], 102 % of control; under setting [10], 107 % of control.
As for `CC1(C)Nc2cccc3cccc(c23)N1`, the T/C by setting is: (dose: 50.0 mg/kg/injection, schedule: Q01DX005 (ip), vehicle: Klucel (hydroxypropylcellulose) (HPC)) 108 % of control; (dose: 100.0 mg/kg/injection, schedule: Q01DX005 (ip), vehicle: Klucel (hydroxypropylcellulose) (HPC)) 86 % of control.
Turning to `c1ccc(C2CC(c3ccccc3)c3ccccc3O2)cc1` (stereo not drawn), the T/C under setting [8] was 87 % of control, the T/C under setting [9] is 90 % of control and the T/C under setting [10] was 96 % of control.
For the molecule `CC1(C)OC2OC3C(Br)C(=O)OC3C2O1` (stereo not drawn), the T/C runs as follows: under setting [4], 90 % of control; under setting [5], 94 % of control; under setting [6], 97 % of control.
With `CCOC(=O)N1Cc2cc3cc(Cl)ccc3nc2C1`, the T/C runs as follows: (dose: 3.13 mg/kg/injection, schedule: Q01DX009 (ip), vehicle: saline with Tween-80) 98 % of control; under setting [1], 105 % of control; (dose: 8.0 mg/kg/injection, schedule: Q01DX009 (ip), vehicle: saline with Tween-80) 95 % of control; under setting [2], 105 % of control; (dose: 16.0 mg/kg/injection, schedule: Q01DX009 (ip), vehicle: saline with Tween-80) 88 % of control; under setting [3], 116 % of control. For the same molecule, the T/C (dose: 32.0 mg/kg/injection, schedule: Q01DX009 (ip), vehicle: saline with Tween-80) was 87 % of control; the T/C (dose: 64.0 mg/kg/injection, schedule: Q01DX009 (ip), vehicle: saline with Tween-80) was 95 % of control; the T/C (dose: 128.0 mg/kg/injection, schedule: Q01DX009 (ip), vehicle: saline with Tween-80) was 100 % of control.
As for `CC(=C\c1ccc(Cl)c(Cl)c1)/C(C)=N/NC(N)=Nc1ccccc1`, the T/C reads like this: (dose: 25.0 mg/kg/injection, schedule: Q04DX002 (ip), vehicle: saline with Tween-80) 105 % of control; (dose: 50.0 mg/kg/injection, schedule: Q04DX002 (ip), vehicle: saline with Tween-80) 103 % of control.
